Data as given in ChEMBL document CHEMBL1135342, “Synthesis and evaluation of thymidine-5'-O-monophosphate analogues as inhibitors of Mycobacterium tuberculosis thymidylate kinase” (Bioorg Med Chem Lett, 2002).

Biological target: T1, Thymidylate kinase (Mycobacterium tuberculosis, UniProt P9WKE1)
T1 sequence (P9WKE1 whole entry): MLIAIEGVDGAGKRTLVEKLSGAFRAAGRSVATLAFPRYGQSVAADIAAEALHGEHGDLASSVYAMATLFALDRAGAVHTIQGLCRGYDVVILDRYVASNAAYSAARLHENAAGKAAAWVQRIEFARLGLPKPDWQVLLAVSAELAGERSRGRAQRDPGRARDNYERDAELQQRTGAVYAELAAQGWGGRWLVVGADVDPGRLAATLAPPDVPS
Assay: Compound was tested for binding affinity against Mycobacterium tuberculosis thymidine monophosphate kinase

**Q.** How did the Ki turn out when `Cc1cn([C@@H]2O[C@H](COP(=O)(O)O)[C@@H](N)[C@H]2O)c(=O)[nH]c1=O` was run?
**A.** Its Ki is 27 µM.

**Q.** For `Cc1cn([C@H]2C[C@H](N=[N+]=[N-])[C@@H](COP(=O)(O)O)O2)c(=O)[nH]c1=O` [AZIDOTHYMIDINE MONOPHOSPHATE], which Ki is on record?
**A.** The Ki was 10 µM.

**Q.** How did the Ki turn out when `Cc1cn([C@@H]2O[C@H](COP(=O)(O)O)[C@@H](O)[C@H]2N)c(=O)[nH]c1=O` was run?
**A.** Its Ki is 55 µM.

**Q.** For `Cc1cn([C@H]2C[C@H](N)[C@@H](COP(=O)(O)O)O2)c(=O)[nH]c1=O`, which Ki is on record?
**A.** The Ki was 235 µM.

**Q.** With `Cc1cn([C@@H]2O[C@H](COP(=O)(O)O)[C@@H](O)[C@H]2Cl)c(=O)[nH]c1=O` as the compound, how does the Ki read?
**A.** Its Ki is 19 µM.

**Q.** For `Cc1cn([C@@H]2O[C@H](COP(=O)(O)O)[C@@H](O)[C@H]2F)c(=O)[nH]c1=O`, which Ki is on record?
**A.** Its Ki is 43 µM.
